# Earlier results in US20220265629A1, “TREATMENT OF SYSTOLIC DYSFUNCTION AND HEART FAILURE WITH REDUCED EJECTION FRACTION WITH THE COMPOUND (R)-4-(1-((3-(DIFLUOROMETHYL)-1-METHYL-1H-PYRAZOL-4-YL)SULFONYL)-1-FLUOROETHYL)-N-(ISOXAZOL-3-YL)PIPERIDINE-1-CARBOXAMIDE” (MyoKardia, Inc., priority 2019, published 2022).
# Assays:
# healthy volunteers = settings: correlated with increase in SET; cited from earlier work
# HFrEF = settings: Teerlink et al.; cited from earlier work
smiles,measurement,setting,value
COC(=O)N1CCN(Cc2cccc(NC(=O)Nc3ccc(C)nc3)c2F)CC1 [omecamtiv mecarbil],ischemia at high doses,healthy volunteers,resulted in ischemia
same,troponin,HFrEF,Mild troponin elevation
